Counter-ions that a name gives are not always drawn. ± gives the standard deviation of the averaged measurements.

The test system of test [1] is 409B2 hiPSC (iCRISPR Cas9, FRMD7 editing). Description: NHEJ-attributed indel frequency relative to solvent control (fold (ratio to mock)); higher = more NHEJ outcomes. How it is done:
(§1)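 Subset screen of 55 drugs tested at 5 concentrations around the effective screening dose, in 409B2 iCRISPR Cas9 hiPSCs editing FRMD7 with a ssDNA donor. Drugs were applied for 24 h. Viability was read by resazurin and editing outcomes by amplicon sequencing (HDR, NHEJ <2 bp microhomology, MMEJ ≥2 bp microhomology). Values are relative to solvent mock controls; two biological replicates.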

Test [2] has the same test system. Description: MMEJ-attributed deletion frequency relative to solvent control (fold (ratio to mock)); higher = more MMEJ outcomes. How it is done:
as §1

The test system is the same in test [3]. Description: cell survival relative to solvent control (fold (ratio to mock)); higher = more surviving cells. How it is done:
as §1

Test [4] has the same test system. Put plainly: HDR (precise edit) frequency relative to solvent control (fold (ratio to mock)); higher = more homology-directed repair outcomes. The protocol:
as §1

Take `CCc1c2c(nc3ccc(OC(=O)N4CCC(N5CCCCC5)CC4)cc13)-c1cc3c(c(=O)n1C2)COC(=O)[C@]3(O)CC` [Irinotecan HCl Trihydrate] (in DMSO): the NHEJ-attributed indel frequency in test [1] (200 nM) came out at 0.914 ± 0.024; in test [1] (500 nM) it was 0.694 ± 0.021; in test [1] (1000 nM), 0.617 ± 0.21; in test [1] (2000 nM), 0.439 ± 0.01; in test [1] (5000 nM) it was 0.434 ± 0.028. For the same compound, the MMEJ-attributed deletion frequency in test [2] (200 nM) is 0.853 ± 0.043; in test [2] (500 nM), 0.688 ± 0.013; in test [2] (1000 nM), 0.566 ± 0.31; in test [2] (2000 nM) it was 0.541 ± 0.16; in test [2] (5000 nM), 0.575 ± 0.049. The cell survival in test [3] (200 nM) amounted to 0.618; in test [3] (500 nM), 0.158; in test [3] (1000 nM), 0.0216; in test [3] (2000 nM), 0.00496; in test [3] (5000 nM) it was 0.00337. Besides, the HDR in test [4] (200 nM) was determined as 1.097 ± 0.0069; in test [4] (500 nM) it was 0.954 ± 0.14; in test [4] (1000 nM), 0.662 ± 0.22; in test [4] (2000 nM), 0.16683 ± 7e-05; in test [4] (5000 nM), 0.149 ± 0.016.
Regarding `CC(C)/N=c1\cc2n(-c3ccc(Cl)cc3)c3ccccc3nc-2cc1Nc1ccc(Cl)cc1` [Clofazimine] (in DMSO), the NHEJ-attributed indel frequency stood at 1.01 ± 0.022 in test [1] (200 nM); 1.027 ± 0.004 in test [1] (500 nM); 0.999 ± 0.017 in test [1] (1000 nM); 1.028 ± 0.0037 in test [1] (2000 nM); 0.974 ± 0.014 in test [1] (5000 nM). Also, the MMEJ-attributed deletion frequency in test [2] (200 nM) amounted to 1.07 ± 0.15; in test [2] (500 nM) it was 0.967 ± 0.077; in test [2] (1000 nM) it was 0.949 ± 0.022; in test [2] (2000 nM) it was 0.957 ± 0.097; in test [2] (5000 nM) it was 0.791 ± 0.14. The cell survival in test [3] (200 nM) is 0.955; in test [3] (500 nM) it was 1.06; in test [3] (1000 nM) it was 0.752; in test [3] (2000 nM), 0.597; in test [3] (5000 nM) it was 0.252. Also, the HDR in test [4] (200 nM) was 0.942 ± 0.032; in test [4] (500 nM) it was 0.91 ± 0.019; in test [4] (1000 nM) it was 0.912 ± 0.042; in test [4] (2000 nM) it was 0.794 ± 0.029; in test [4] (5000 nM), 0.772 ± 0.058.
Turning to `CNCc1ccc(-c2[nH]c3cc(F)cc4c3c2CCNC4=O)cc1` [Rucaparib (free base)] (in DMSO), the NHEJ-attributed indel frequency in test [1] (20 nM) was 0.952 ± 0.015; in test [1] (50 nM) it was 0.924 ± 0.013; in test [1] (100 nM) it was 0.876 ± 0.034; in test [1] (200 nM), 0.853 ± 0.045; in test [1] (500 nM), 0.787 ± 0.054. Also, the MMEJ-attributed deletion frequency is 1.04 ± 0.017 in test [2] (20 nM); 0.892 ± 0.2 in test [2] (50 nM); 0.93 ± 0.079 in test [2] (100 nM); 0.869 ± 0.16 in test [2] (200 nM); 0.918 ± 0.076 in test [2] (500 nM). Further, the cell survival was found to be 0.789 in test [3] (20 nM); 0.744 in test [3] (50 nM); 0.541 in test [3] (100 nM); 0.487 in test [3] (200 nM); 0.291 in test [3] (500 nM). Also, the HDR in test [4] (20 nM) came to 1.13 ± 0.035; in test [4] (50 nM), 1.302 ± 0.0046; in test [4] (100 nM), 1.31 ± 0.071; in test [4] (200 nM), 1.32 ± 0.17; in test [4] (500 nM), 1.26 ± 0.037.
On to `CC1(C)S[C@@H]2[C@H](NC(=O)COc3ccccc3)C(=O)N2[C@H]1C(=O)O` [Penicillin V potassium salt] (in DMSO), for which the NHEJ-attributed indel frequency in test [1] (200 nM) was 1.006 ± 0.0015; in test [1] (500 nM), 1.012 ± 0.0034; in test [1] (1000 nM), 0.9903 ± 0.0037; in test [1] (2000 nM), 1 ± 0.021; in test [1] (5000 nM), 1.01 ± 0.013. For the same compound, the MMEJ-attributed deletion frequency in test [2] (200 nM) stood at 1.02 ± 0.097; in test [2] (500 nM) it was 0.994 ± 0.04; in test [2] (1000 nM), 0.963 ± 0.15; in test [2] (2000 nM), 1.1 ± 0.047; in test [2] (5000 nM) it was 1.05 ± 0.11. Also, the cell survival came out at 0.876 in test [3] (200 nM); 1.15 in test [3] (500 nM); 0.976 in test [3] (1000 nM); 0.894 in test [3] (2000 nM); 0.923 in test [3] (5000 nM). Also, the HDR in test [4] (200 nM) came to 0.992 ± 0.094; in test [4] (500 nM), 1.05 ± 0.012; in test [4] (1000 nM), 0.992 ± 0.02; in test [4] (2000 nM), 1.01 ± 0.062; in test [4] (5000 nM), 0.964 ± 0.11.
For `CC(C)(c1ccc(O)cc1)c1ccc(O)cc1` [Bisphenol A] (in DMSO), the NHEJ-attributed indel frequency amounted to 1 ± 0.011 in test [1] (20 nM); 1.01 ± 0.014 in test [1] (50 nM); 1.01 ± 0.045 in test [1] (100 nM); 1.015 ± 0.0024 in test [1] (200 nM); 1.02 ± 0.051 in test [1] (500 nM). In addition, the MMEJ-attributed deletion frequency was determined as 1.02 ± 0.062 in test [2] (20 nM); 0.8949 ± 0.0088 in test [2] (50 nM); 0.974 ± 0.23 in test [2] (100 nM); 0.965 ± 0.066 in test [2] (200 nM); 1.01 ± 0.15 in test [2] (500 nM). Further, the cell survival in test [3] (20 nM) was 1.02; in test [3] (50 nM) it was 1.14; in test [3] (100 nM), 0.953; in test [3] (200 nM) it was 1.22; in test [3] (500 nM) it was 1.14. Also, the HDR is 1.025 ± 0.0061 in test [4] (20 nM); 1.01 ± 0.028 in test [4] (50 nM); 1.07 ± 0.025 in test [4] (100 nM); 1.023 ± 0.0052 in test [4] (200 nM); 0.983 ± 0.05 in test [4] (500 nM).
As for `CC(CCc1ccccc1)NCC(O)c1ccc(O)c(C(N)=O)c1` (stereo not given) [Labetalol HCl] (in DMSO), the NHEJ-attributed indel frequency came to 0.988 ± 0.029 in test [1] (2000 nM); 1.02 ± 0.0051 in test [1] (5000 nM); 1.05 ± 0.018 in test [1] (10000 nM); 1.093 ± 0.0077 in test [1] (20000 nM); 1.0876 ± 0.00036 in test [1] (50000 nM). Further, the MMEJ-attributed deletion frequency in test [2] (2000 nM) amounted to 1.04 ± 0.027; in test [2] (5000 nM), 0.975 ± 0.13; in test [2] (10000 nM) it was 1.13 ± 0.15; in test [2] (20000 nM) it was 1.08 ± 0.034; in test [2] (50000 nM), 1.25 ± 0.049. The cell survival in test [3] (2000 nM) is 0.953; in test [3] (5000 nM), 1.39; in test [3] (10000 nM), 1.08; in test [3] (20000 nM) it was 1.14; in test [3] (50000 nM), 1.15. Further, the HDR in test [4] (2000 nM) was 1.05 ± 0.063; in test [4] (5000 nM), 0.878 ± 0.059; in test [4] (10000 nM) it was 0.834 ± 0.025; in test [4] (20000 nM), 0.757 ± 0.049; in test [4] (50000 nM), 0.756 ± 0.028.

The record behind these values is the supplement of paper PMC12698765.
